Results taken from publication PMC8048873 (The Plant Journal, 2021).

Target: T1, CERK1 ectodomain (CERK1-ECD; LYK1) (Arabidopsis thaliana, UniProt A8R7E6)
T1 sequence (A8R7E6 24-232): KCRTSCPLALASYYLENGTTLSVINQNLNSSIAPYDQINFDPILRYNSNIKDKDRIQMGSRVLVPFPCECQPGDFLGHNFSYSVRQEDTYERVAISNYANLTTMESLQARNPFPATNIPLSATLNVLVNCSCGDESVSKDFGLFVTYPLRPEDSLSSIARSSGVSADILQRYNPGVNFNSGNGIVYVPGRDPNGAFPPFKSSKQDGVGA
Test: isothermal titration calorimetry
Assay type: binding
Conditions: 20 mM MES pH 6.5, 150 mM NaCl, 25°C; 50 µM protein in cell, ligand 500 µM or 1 mM; n = 2

Kd: 37.5 ± 10 µM
Compound: CC(=O)N[C@H]1[C@H](O[C@H]2[C@H](O)[C@@H](NC(C)=O)[C@H](O[C@H]3[C@H](O)[C@@H](NC(C)=O)C(O)O[C@@H]3CO)O[C@@H]2CO)O[C@H](CO)[C@@H](O[C@@H]2O[C@H](CO)[C@@H](O[C@@H]3O[C@H](CO)[C@@H](O[C@@H]4O[C@H](CO)[C@@H](O)[C@H](O)[C@H]4NC(C)=O)[C@H](O)[C@H]3NC(C)=O)[C@H](O)[C@H]2NC(C)=O)[C@@H]1O (stereo partly drawn) [1,4‐β‐D‐(GlcNAc)6, chitohexaose]
